In test [1] the test system is human LS180 intestinal cells. Kind of test: Inhibition of phenylephrine (PE) metabolism (PE disappearance) in LS180 cells. The conditions noted are these: Homo sapiens, LS180 cells. The format is cell-based. On the procedure:
The inhibitors which can be used in the practice of the invention are wide ranging. […] The LS180 model provides an inexpensive method to imitate the human intestine, with regards to PE metabolism. […] For the LS180 experiments, LS180 cells are seeded at the concentration of 1.9×10^5 cells/ml in 12-well plate. […] After incubation, medium is removed and stored at −80° C. until analysis. The metabolic reactions are quenched by placing 12-well plate on ice and quickly rinsing each well. The cell extraction of metabolites is carried out with 1 ml 2% acetic acid solution in methanol. Cells are scraped and collected in centrifuge tubes. The suspension is mixed for 2-3 min and centrifuged at 18,000 rcf for 5 min. Supernatants (800 μl) are collected. After scraping, each well is washed twice as above. The washing solution is collected with the supernatant and dried under reduced pressure. The residue is re-suspended in 35 μl water and analyzed by HPLC. […] The data are processed with one-way ANOVA followed by Dunnett's post test; * indicates p<0.05.
Phenolic compounds were selected from FDA's “GRAS” list, approved food additives, or dietary supplements. LS180 cells were used as a model to test the effect of these phenolic compounds on the pre-systemic sulfation of PE. The cells were incubated in 0.5 ml medium with PE (50 μM)±inhibitor (100 μM) overnight. Extracellular buffer was collected and cells were extracted with methanol. PE was determined by reversed-phase HPLC with fluorescence detection. The formation of PE-sulfate was analyzed by LC-MS/MS. Results (n=3 per group) were analyzed by one-way ANOVA with Dunnett's post-test (p<0.05; Prism 5).

For test [2], the system named is human LS180 intestinal cells. The test is described as follows: Inhibition of PE sulfate formation in LS180 cells. The format is cell-based. The conditions noted are these: PE 50 μM ± inhibitor 100 μM, overnight, LC-MS/MS, read-out: PE-sulfate formation inhibited to (control=100%). The source says:
The inhibitors which can be used in the practice of the invention are wide ranging. Tables 1 and 2 show results with a number of different compounds which can function as inhibitors of SULT, MAO, CYP, COMT or UGT enzymes, or which otherwise may be used to increase the bioavailability of the exemplary bioactive phenylephrine. […] In Tables 1 and 2, human LS180 intestinal cells were used for screening the inhibition of PE metabolism. For the experiment which produced the results in Table 1, the concentration of PE was […]; the concentration of vitamin C (where present) was 1 mM; the total concentration of other inhibitors was 100 μM. Cells were incubated at 37° C. for 14 to 17.5 hours, as indicated. […] The residue is re-suspended in 35 μl water and analyzed by HPLC. All the samples are analyzed for PE by HPLC with a phenyl column (150×3.2 mm, 5 μm, 55° C.) at the flow rate of […] (20% methanol and 80% (aqueous 1% acetic acid)) and detected by fluorescence (excitation 270 nm, emission 305 nm). […]
Phenolic compounds were selected from FDA's “GRAS” list, approved food additives, or dietary supplements. […] PE was determined by reversed-phase HPLC with fluorescence detection. The formation of PE-sulfate was analyzed by LC-MS/MS. Results (n=3 per group) were analyzed by one-way ANOVA with Dunnett's post-test (p<0.05; Prism 5).

In the case of `COc1ccccc1O` [guaiacol], the activity at 100 µM in test [1] (PE 50 μM ± inhibitor 100 μM, overnight, n=3, control=503±127 pmol/hr, read-out: extent of disappearance of PE (mean±SD, as % of control)) was found to be 51 ± 14%; in test [1] (PE 50 μM, inhibitors total 100 μM, incubation 18.5 hr, read-out: Extent of PE Disappearance (as % of control)), 51.3%; in test [2], 33 ± 7%.
